Measured values reported in PubChem BioAssay (NCI).
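Cultured in 96-well plates, cells were exposed to test compound for 48 hours across five concentrations. GI50 marks 50% less growth. TGI denotes the concentration required for complete inhibition of growth.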 *1 amine or outer side, *2 acyl side, *3 side chain or, on linkers, in order; H or OH if unused. Where a SMILES comes first, the peptide text is derived from it. [ ]: non-standard residue; d: D form. X56 = CC[C@H](C)[C@H](OC(=O)[C@@H](C)[C@@H](CC)N[*:1])C(=O)[*:2]; X32 = C[C@H](N[*:1])C(=O)C(C)(C)C(=O)[*:2]; NMeY = CN[C@@H](Cc1ccc(O)cc1)C(=O)O; NMeL = CN[C@@H](CC(C)C)C(=O)O; NMeV = CN[C@H](C(=O)O)C(C)C

Tests used:
Assay in all cases: NCI-60 cell line screen, 48 h
[1] = test system: DMS 114 small cell lung
[2] = test system: LXFL 529 NSCLC
[3] = test system: XF 498 CNS
[4] = test system: DLD-1 colon
[5] = test system: DMS 273 small cell lung
[6] = test system: RXF-631 renal
[7] = test system: SNB-78 CNS
[8] = test system: M19-MEL melanoma
[9] = test system: MDA-N

SMILES	TGI [1]	TGI [2]	TGI [3]	TGI [4]	TGI [5]	TGI [6]	TGI [7]	TGI [8]	TGI [9]	GI50 [1]	GI50 [2]	GI50 [3]	GI50 [4]	GI50 [5]	GI50 [6]	GI50 [8]
N#C/C(=C\c1ccc(C(O)P(=O)(O)O)cc1)C(N)=O (centres undefined)	> 100 µM	> 100 µM	> 100 µM	> 100 µM	> 100 µM	> 100 µM	> 100 µM	> 100 µM								
COc1ccc(-c2cc(=O)c3c(OC)c(OC)c(OC)c(OC)c3o2)c(OC)c1									> 100 µM							
C=C1C(=O)OC2CC(C)C3C=CC(=O)C3CC12 (centres undefined)	6.22 µM	2.67 µM	3.4 µM		12.2 µM	13.7 µM	19.2 µM	9.19 µM	5.73 µM							
Nc1ncnc2c1cnn2Cc1ccc(Cl)cc1									> 100 µM							
CC1(C)CC2(C)CC1CC2NC(=O)CCN1CCOCC1 (centres undefined)									> 100 µM							
C=CC1=C(C)C2=NC1=CC1=NC(=CC3=C(C)C4=C(O)C(C(=O)OC)C(=C5NC(=C2)C(C)C5CCC(=O)OC)C4=N3)C(CC)=C1C (centres undefined)									> 100 µM							
N#CC1C2CCC3(CC2CCN1C(=O)c1ccccc1)OCCO3 (centres undefined)	> 100 µM	> 100 µM	> 100 µM	> 100 µM	> 100 µM		> 100 µM	> 100 µM								
CC1(O)CCC2(C#N)CCC1C2O (centres undefined)	31.1 µM	> 100 µM	> 100 µM	> 100 µM	> 100 µM	> 100 µM	> 100 µM	> 100 µM								
NS(=O)(=O)c1ccc(NC(=O)c2cccc3cc4ccccc4nc23)cc1	> 100 µM	> 100 µM	> 100 µM	> 100 µM	> 100 µM	> 100 µM	> 100 µM	> 100 µM	> 100 µM							
CSc1ncnc2c1CCN2	> 100 µM	> 100 µM					> 100 µM	> 100 µM	8.6 µM							
COc1ccc(OC)c2c(=S)c3ccccc3[nH]c12	> 100 µM	> 100 µM	> 100 µM	> 100 µM	> 100 µM	> 100 µM		> 100 µM	> 100 µM							
CC(C)C(=O)/C=C/c1ccc(Cl)c(Cl)c1	42.3 µM	40.2 µM	25.1 µM	34.2 µM			> 100 µM	32.3 µM								
NC(CC1=CCC=CC1)C(=O)O (centres undefined)									> 100 µM							
COC(=O)C1C(OCc2ccccc2)C2CCC1(OC)C=C2C (centres undefined)	> 100 µM	> 100 µM	> 86.7 µM	> 100 µM	> 83.9 µM		> 100 µM	> 100 µM								
COc1cc2c(c(OC)c1OC)-c1ccc(OC)c(=O)cc1[C@@H](N(C)C=O)CC2		> 100 µM	> 23 µM	> 100 µM	> 100 µM	> 26.2 µM	> 100 µM	> 100 µM								
Cc1c(N=Cc2ccc(N(CCC#N)CCC#N)cc2)c(=O)n(-c2ccccc2)n1C	> 100 µM	> 100 µM	> 80.6 µM	> 100 µM	> 100 µM		> 100 µM	> 100 µM	> 100 µM							
C1=Nc2ccccc2C=Nc2ccccc2C=Nc2ccccc2C=Nc2ccccc21.[Cl-].[Pt+2]	46.2 µM	60 µM	51.1 µM	98.4 µM	55.5 µM	77.9 µM		> 100 µM		12.1 µM	10.3 µM	18.4 µM	17.8 µM	19 µM	30.9 µM	22.2 µM
O=C(CC1C=CCS1(=O)=O)NCc1ccccc1 (centres undefined)									> 100 µM							
COc1ccc(-c2c(N)[n+]([O-])c3ccccc3[n+]2[O-])cc1OC	> 100 µM	> 100 µM		> 100 µM	> 100 µM	> 100 µM	> 100 µM	> 100 µM								
Cc1ccc2c(c1)CNc1ccc(C)cc1CN2	> 100 µM	> 100 µM	> 100 µM	> 100 µM	> 100 µM		> 100 µM	> 100 µM								
COc1cc2c(cn1)[nH]c1ccccc12	> 100 µM	> 100 µM	> 100 µM	> 100 µM	> 100 µM	> 100 µM	> 100 µM									
CC/C=C/c1cc2cc[nH]c2c2c1C(C)C[C@@H]2C (some centres undefined)	51 µM	41.9 µM		> 100 µM			67 µM	77.3 µM								
CC[C@H](C)[C@@H]1OC(=O)[C@@H](C)[C@@H](CC)NC(=O)[C@H](C)NC(=O)C(C)(C)C(=O)[C@H](C)NC(=O)[C@H](Cc2ccc(OC)cc2)N(C)C(=O)[C@H](C(C)C)N(C)C(=O)CNC(=O)[C@H](CC(C)C)N(C)C(=O)CNC1=O (cyclo(A[X56]G[NMeL]G[NMeV][NMeY](Me)[X32]))	1.13 µM	0.0823 µM	0.173 µM	2.12 µM	0.072 µM			22.3 µM								

SMILES	TGI [1]	TGI [2]	TGI [3]	TGI [4]	TGI [5]	TGI [6]	TGI [7]	TGI [8]	TGI [9]	GI50 [1]	GI50 [2]	GI50 [3]	GI50 [4]	GI50 [5]	GI50 [6]	GI50 [8]
Cc1cc(N(CCCl)CCCl)ccc1/C=N/NC(=O)Cc1cc(=O)oc2cc(O)ccc12									32.4 µM							
COc1ccccc1-c1cc(=O)c2ccc(OC)c(OC)c2o1									> 100 µM							
O=C(NCc1ccncc1)C1COc2cc(-c3cc(=O)c4ccccc4o3)ccc2O1 (centres undefined)		> 100 µM	> 100 µM	> 100 µM			> 100 µM	> 100 µM								
C/C(=N\N=C(N)N)C(CN(C)C)C(c1ccccc1)c1c(O)c2ccccc2oc1=O (centres undefined)	> 100 µM	> 100 µM	> 100 µM	> 100 µM	> 100 µM		> 100 µM	> 100 µM	> 100 µM							
Nc1nc(-c2cccc([N+](=O)[O-])c2)cc(-c2cc(-c3cccc([N+](=O)[O-])c3)nc(N)n2)n1									> 100 µM							
CC(=O)/C=C/c1ccc(C)cc1	> 100 µM	> 100 µM		> 100 µM	> 100 µM		> 100 µM	> 100 µM								
CC(C)CN(CC(C)C)C(=O)C1CCCC[C@@H]1C(=O)O (some centres undefined)	> 100 µM	> 100 µM		> 100 µM	> 100 µM	> 100 µM	> 100 µM	> 100 µM								
c1ccc(COC2(OCc3ccccc3)CC3OC2C2NN=NC32)cc1 (centres undefined)		29.3 µM	35 µM	31.3 µM	53.4 µM		86.3 µM	32.2 µM								
COc1ccc(/C=C/NC=O)cc1									> 100 µM							
Cc1c2c(cc3c(=O)ccn(CCN(C)C)c13)c(=O)ccn2CCN(C)C	30.1 µM	19.8 µM	22.9 µM	28.7 µM	16.3 µM		> 100 µM	30.2 µM								
CS(=O)(=O)OCCN(CCOS(C)(=O)=O)c1ccc(C=O)cc1	28.2 µM	47.4 µM	5.85 µM	> 84 µM	13.5 µM		> 100 µM	30.2 µM	27.2 µM							
COc1cc(Nc2nc3ccc(C(F)(F)F)cc3nc2-c2ccccc2)cc(OC)c1OC		> 100 µM		> 100 µM	> 100 µM		> 100 µM									
O=C(/C=C/c1ccccc1Cl)c1ccc(Cl)cc1Cl	26.3 µM	29.7 µM		32.3 µM	29.6 µM	34.6 µM	36.2 µM	31.9 µM								
O=C(c1ccc(Cl)cc1)c1ccc(OCCSCCCCCCCCCCSCCOc2ccc(C(=O)c3ccc(Cl)cc3)cc2)cc1				> 100 µM	> 100 µM	> 100 µM	> 100 µM	> 100 µM								
N#CC1CC2(C(=O)C1=O)c1ccccc1-c1ccccc12 (centres undefined)	> 100 µM	> 100 µM		> 100 µM	> 100 µM			> 100 µM								
C1COCCOCCOCCOCCO1.CC(=O)[CH-]C(C)=O.CC(=O)[CH-]C(C)=O.CC(=O)[CH-]C(C)=O.[V]	82.1 µM	41.2 µM		> 100 µM	34.8 µM					28.3 µM	20.7 µM		28 µM	15.7 µM		
CC1(C)CC(Nc2ccc(Nc3ccccc3)cc2)CC(C)(C)N1	42.9 µM	> 56.8 µM	> 54.2 µM	> 100 µM	> 100 µM	> 31.6 µM	> 100 µM	> 94.2 µM	32.7 µM							
O=c1c2cccnc2ncn1CCN1CCCC1	> 100 µM	> 100 µM	> 100 µM	> 100 µM	> 100 µM		> 100 µM	> 100 µM								
O=c1c2ccccc2nc(-c2cccc(Cl)c2)n1NCC1(O)OCC(O)C(O)C1O (centres undefined)	> 100 µM	> 100 µM			> 100 µM	> 100 µM	> 100 µM	> 100 µM								
Cc1cc(=O)oc2cc(OS(C)(=O)=O)ccc12									> 100 µM							
S=c1nc(N2CCCCC2)ss1	42.4 µM	54.2 µM	44.7 µM	> 100 µM	42.3 µM	79.4 µM	99.1 µM	52.3 µM								
CCC(C(=O)c1ccccc1)C(CCCC(=O)Nc1c(C)cccc1C)N=O (centres undefined)		> 100 µM	> 100 µM	> 100 µM	> 100 µM	> 100 µM	> 100 µM	> 100 µM								
Cc1ccc(Oc2ccc([N+](=O)[O-])cc2[N+](=O)[O-])c(C)c1	> 100 µM	> 100 µM	> 100 µM	> 100 µM	> 100 µM	> 100 µM	> 100 µM	> 100 µM								
